Common to all, as to test: Experiment B1 glasshouse herbicide test, pre- and post-emergence, percentage damage
Common to all, as to format: in vivo
Common to all, as to details: evaluated after 13 days

One assay deals with Lolium perenne (LOLPE). As for the experimental part: (§1) Seeds of a variety of test species are sown in standard soil in pots (Lolium perenne (LOLPE), Solanum nigrum (SOLNI), Amaranthus retoflexus (AMARE), Setaria faberi (SETFA), Echinochloa crus-galli (ECHCG), Ipomoea hederacea (IPOHE)). After cultivation for one day (pre-emergence) or after 8 days cultivation (post-emergence) under controlled conditions in a glasshouse (at 24/16° C., day/night; 14 hours light; 65% humidity), the plants are sprayed with an aqueous spray solution derived from the formulation of the technical active ingredient in acetone/water (50:50) solution containing 0.5% Tween 20 (polyoxyethelyene sorbitan monolaurate, CAS RN 9005-64-5). […] The test plants are then grown in a glasshouse under controlled conditions in a glasshouse (at 24/16° C., day/night; 14 hours light; 65% humidity) and watered twice daily. After 13 days for pre and post-emergence, the test is evaluated for the percentage damage caused to the plant. The biological activities are shown in the following table on a five point scale (5=80-100%; 4=60-79%; 3=40-59%; 2=20-39%; 1=0-19%).

Assay [1] deals with Amaranthus retoflexus (AMARE). The procedure:
as §1

Assay [2] relates to Ipomoea hederacea (IPOHE). As for the experimental part:
as §1

The test system of assay [3] is Echinochloa crus-galli (ECHCG). The procedure: as §1
A further assay deals with Solanum nigrum (SOLNI). The procedure:
as §1

For the next assay, the system named is Setaria faberi (SETFA). The procedure: as §1
Where [4] appears, read: POST Application (post-emergence, after 8 days cultivation), 1000 g/h.
The mark [5] stands for this setting: PRE Application (pre-emergence, after cultivation for one day), 1000 g/h.
Setting [6] is: POST Application (post-emergence), applied at 250 g/ha.
The mark [7] stands for this setting: PRE Application (pre-emergence), applied at 250 g/ha.

The structures appear in SMILES notation.

This note sets out measurements from patent US9980486B2, “Herbicidal quinolines” (Syngenta Participations AG, priority 2014, dated 2018).

Turning to `Cc1ccc(-c2c(C(F)(F)F)c(C(=O)Nc3nnnn3C)cc3cccnc23)cc1` [Compound 1.017], the “percentage damage caused to the plant, five point scale, LOLPE” value (“percentage damage caused … LOLPE” below) in the assay on Lolium perenne (LOLPE) (setting [4]) and in the assay with Lolium perenne (LOLPE) (setting [5]) was 4 (4=60-79%) in each case. In addition, the “percentage damage caused to the plant, five point scale, AMARE” value (“percentage damage caused … AMARE” for short) in assay [1] (setting [4]) and in assay [1] (setting [5]) was 5 (5=80-100%) each time. For the same compound, the “percentage damage caused to the plant, five point scale, IPOHE” value (from here on “percentage damage caused … IPOHE”) in assay [2] (setting [4]) and in assay [2] (setting [5]) was 5 (5=80-100%) in each case. Moreover, the “percentage damage caused to the plant, five point scale, ECHCG” value (from here on “percentage damage caused … ECHCG”) in assay [3] (setting [4]) and in assay [3] (setting [5]) was 5 (5=80-100%) in each case. For the same compound, the “percentage damage caused to the plant, five point scale, SOLNI” value (from here on “percentage damage caused … SOLNI”) in the assay with Solanum nigrum (SOLNI) (setting [4]) and with Solanum nigrum (SOLNI) (setting [5]) was 5 (5=80-100%) throughout. The “percentage damage caused to the plant, five point scale, SETFA” value (from here on “percentage damage caused … SETFA”) in the assay on Setaria faberi (SETFA) (setting [4]) and in the assay with Setaria faberi (SETFA) (setting [5]) was 5 (5=80-100%) throughout.
Regarding `Cc1ccc2cc(C(=O)Nc3nnnn3C)c(C)c(-c3ccc(S(C)(=O)=O)cc3)c2n1` [Compound 1.038], the “percentage damage caused … LOLPE” value was 5 (5=80-100%) in the assay with Lolium perenne (LOLPE) (setting [4]) and 4 (4=60-79%) in the assay on Lolium perenne (LOLPE) (setting [5]). The “percentage damage caused … AMARE” value in assay [1] (setting [4]) and in assay [1] (setting [5]) was 5 (5=80-100%) throughout. Also, the “percentage damage caused … IPOHE” value is recorded as 5 (5=80-100%) in assay [2] (setting [4]) and 4 (4=60-79%) in assay [2] (setting [5]). Also, the “percentage damage caused … ECHCG” value in assay [3] (setting [4]) and in assay [3] (setting [5]) was 5 (5=80-100%) throughout. For the same compound, the “percentage damage caused … SOLNI” value in the assay with Solanum nigrum (SOLNI) (setting [4]) and with Solanum nigrum (SOLNI) (setting [5]) was 5 (5=80-100%) in each case. Besides, the “percentage damage caused … SETFA” value in the assay with Setaria faberi (SETFA) (setting [4]) and with Setaria faberi (SETFA) (setting [5]) was 5 (5=80-100%) in each case.
For `COc1ccc(-c2c(C)c(C(=O)Nc3nnnn3C)cc3cccnc23)cc1` [Compound 1.034], the “percentage damage caused … LOLPE” value in the assay with Lolium perenne (LOLPE) (setting [4]) is 4 (4=60-79%); in the assay with Lolium perenne (LOLPE) (setting [5]), 5 (5=80-100%). Also, the “percentage damage caused … AMARE” value in assay [1] (setting [4]) and in assay [1] (setting [5]) was 5 (5=80-100%) throughout. Besides, the “percentage damage caused … IPOHE” value in assay [2] (setting [4]) and in assay [2] (setting [5]) was 5 (5=80-100%) in each case. The “percentage damage caused … ECHCG” value in assay [3] (setting [4]) and in assay [3] (setting [5]) was 5 (5=80-100%) in each case. Besides, the “percentage damage caused … SOLNI” value with Solanum nigrum (SOLNI) (setting [4]) and in the assay on Solanum nigrum (SOLNI) (setting [5]) was 5 (5=80-100%) each time. Besides, the “percentage damage caused … SETFA” value with Setaria faberi (SETFA) (setting [4]) and in the assay with Setaria faberi (SETFA) (setting [5]) was 5 (5=80-100%) in each case.
With `Cc1c(C(=O)Nc2nnnn2C)cc2cccnc2c1-c1ccc(F)cc1` [Compound 1.035], the “percentage damage caused … LOLPE” value is reported as 4 (4=60-79%) with Lolium perenne (LOLPE) (setting [4]) and 5 (5=80-100%) with Lolium perenne (LOLPE) (setting [5]). Moreover, the “percentage damage caused … AMARE” value in assay [1] (setting [4]) and in assay [1] (setting [5]) was 5 (5=80-100%) throughout. For the same compound, the “percentage damage caused … IPOHE” value in assay [2] (setting [4]) and in assay [2] (setting [5]) was 5 (5=80-100%) throughout. Besides, the “percentage damage caused … ECHCG” value in assay [3] (setting [4]) and in assay [3] (setting [5]) was 5 (5=80-100%) throughout. In addition, the “percentage damage caused … SOLNI” value in the assay with Solanum nigrum (SOLNI) (setting [4]) and in the assay with Solanum nigrum (SOLNI) (setting [5]) was 5 (5=80-100%) throughout. Besides, the “percentage damage caused … SETFA” value in the assay on Setaria faberi (SETFA) (setting [4]) and in the assay with Setaria faberi (SETFA) (setting [5]) was 5 (5=80-100%) each time.
Take `Cn1nnnc1NC(=O)c1cc2cccnc2c(-c2ccccc2)c1[S+](C)[O-]` (stereo not drawn) [Compound 1.045]: the entries for the “percentage damage caused … LOLPE” value with Lolium perenne (LOLPE) (setting [6]) and in the assay with Lolium perenne (LOLPE) (setting [7]) were 3 (3=40-59%) and 1 (1=0-19%), respectively. Further, the “percentage damage caused … AMARE” value in assay [1] (setting [6]) is reported as 5 (5=80-100%); in assay [1] (setting [7]) it was 4 (4=60-79%). The entries for the “percentage damage caused … IPOHE” value in assay [2] (setting [6]) and in assay [2] (setting [7]) were 5 (5=80-100%) and 2 (2=20-39%), respectively. Moreover, the results for the “percentage damage caused … ECHCG” value in assay [3] (setting [6]) and in assay [3] (setting [7]) were 5 (5=80-100%) and 4 (4=60-79%), respectively. The “percentage damage caused … SOLNI” value with Solanum nigrum (SOLNI) (setting [6]) is 5 (5=80-100%); with Solanum nigrum (SOLNI) (setting [7]) it was 4 (4=60-79%). In addition, the “percentage damage caused … SETFA” value in the assay with Setaria faberi (SETFA) (setting [6]) is listed as 5 (5=80-100%); in the assay with Setaria faberi (SETFA) (setting [7]), 1 (1=0-19%).
For `Cn1nnnc1NC(=O)c1cc2cccnc2c(-c2ccccc2)c1Cl` [Compound 1.011, 7-chloro-N-(1-methyltetrazol-5-yl)-8-phenyl-quinoline-6-carboxamide], the “percentage damage caused … LOLPE” value in the assay on Lolium perenne (LOLPE) (setting [4]) and in the assay on Lolium perenne (LOLPE) (setting [5]) was 5 (5=80-100%) throughout. Besides, the “percentage damage caused … AMARE” value in assay [1] (setting [4]) and in assay [1] (setting [5]) was 5 (5=80-100%) each time. In addition, the “percentage damage caused … IPOHE” value in assay [2] (setting [4]) and in assay [2] (setting [5]) was 5 (5=80-100%) each time. Further, the “percentage damage caused … ECHCG” value in assay [3] (setting [4]) and in assay [3] (setting [5]) was 5 (5=80-100%) throughout. Moreover, the “percentage damage caused … SOLNI” value in the assay with Solanum nigrum (SOLNI) (setting [4]) and in the assay with Solanum nigrum (SOLNI) (setting [5]) was 5 (5=80-100%) in each case. Also, the “percentage damage caused … SETFA” value in the assay on Setaria faberi (SETFA) (setting [4]) and in the assay on Setaria faberi (SETFA) (setting [5]) was 5 (5=80-100%) throughout.
As for `CCCn1nnnc1NC(=O)c1cc2cccnc2c(-c2ccccc2)c1C(F)(F)F` [Compound 1.003], the “percentage damage caused … LOLPE” value with Lolium perenne (LOLPE) (setting [4]) and with Lolium perenne (LOLPE) (setting [5]) was 1 (1=0-19%) in each case. For the same compound, the “percentage damage caused … AMARE” value in assay [1] (setting [4]) and in assay [1] (setting [5]) was 5 (5=80-100%) throughout. Also, the “percentage damage caused … IPOHE” value in assay [2] (setting [4]) is 4 (4=60-79%); in assay [2] (setting [5]), 2 (2=20-39%). Further, the “percentage damage caused … ECHCG” value in assay [3] (setting [4]) is 3 (3=40-59%); in assay [3] (setting [5]), 5 (5=80-100%). Moreover, the “percentage damage caused … SOLNI” value with Solanum nigrum (SOLNI) (setting [4]) and in the assay with Solanum nigrum (SOLNI) (setting [5]) was 5 (5=80-100%) each time. In addition, the “percentage damage caused … SETFA” value is 2 (2=20-39%) in the assay on Setaria faberi (SETFA) (setting [4]) and 1 (1=0-19%) with Setaria faberi (SETFA) (setting [5]).
With `CSc1c(C(=O)Nc2nnnn2C)cc2cccnc2c1-c1ccccc1` [Compound 1.032, 7-methylsulfanyl-N-(1-methyltetrazol-5-yl)-8-phenyl-quinoline-6-carboxamide], the “percentage damage caused … LOLPE” value in the assay on Lolium perenne (LOLPE) (setting [4]) and with Lolium perenne (LOLPE) (setting [5]) was 5 (5=80-100%) in each case. The “percentage damage caused … AMARE” value in assay [1] (setting [4]) and in assay [1] (setting [5]) was 5 (5=80-100%) each time. Also, the “percentage damage caused … IPOHE” value in assay [2] (setting [4]) and in assay [2] (setting [5]) was 5 (5=80-100%) in each case. Moreover, the “percentage damage caused … ECHCG” value in assay [3] (setting [4]) and in assay [3] (setting [5]) was 5 (5=80-100%) in each case. In addition, the “percentage damage caused … SOLNI” value in the assay on Solanum nigrum (SOLNI) (setting [4]) and with Solanum nigrum (SOLNI) (setting [5]) was 5 (5=80-100%) in each case. In addition, the “percentage damage caused … SETFA” value in the assay on Setaria faberi (SETFA) (setting [4]) and in the assay on Setaria faberi (SETFA) (setting [5]) was 5 (5=80-100%) in each case.
